Assays:
[1] = tested on: human adrenal gland section expressing aldosterone-producing adenoma; assay: In vitro autoradiography using human adrenal adenoma; format: binding
Excerpt: From adrenal gland excised from a human patient for treatment of primary aldosteronism, a portion containing aldosterone-producing adenoma was removed and was then frozen. The frozen adrenal gland was embedded in an embedding agent for production of a frozen tissue section (Tissue-Tek O.C.T. Compound, Sakura Finetek Japan). Using a freezing microtome (CM3050S, Leica Microsystems), a 7-μm thin slice section, which is schematically shown in FIGS. 17(a) and 17(b), was produced, and was preserved at −20° C. before use. In FIGS. 17, 71a and 71b indicate aldosterone-producing adenomas, 72a and 72b indicate normal adrenal cortexes, and 73a and 73b indicate normal adrenal medullas. A 5-33 kBq/mL solution was prepared by adding a suitable amount of each of Compounds [^18F] 100, [^18F] 200, [^123I] 400, [^18F] 500, and [^123I] 601 to [^123I] 610, which were obtained by the methods described in Examples 2, 4, 7, 9, 11, 13, 15, 17, 19, 21, 23, 25, 27, and 29, or [^123I] IMTO to a phosphate-buffered physiological saline containing 1 w/v % bovine serum albumin (not containing fatty acid). The radioactivity concentration was measured using an autowell gamma system (ARC-7001, manufactured by Hitachi Aloka Medical, Ltd.). The section was immersed in the obtained sample solution for 10 minutes. For Compounds [^18F] 100, [^18F] 200, [^123I] 400, [^18F] 500, [^123I] 601 and [^123I] 602, the section shown in FIG. 17(a) was used, and for Compounds […] [^123I] IMTO, both sections shown in FIGS. 17(a) and (b) were used. Each sample solution was washed off, and the section was then exposed to an imaging plate (BAS-SR2040, manufactured by FUJIFILM Holdings Corporation) (IP) for 16-20 hours, and thereafter, an autoradiogram was obtained using a fluoro-image analyzer (FLA-7000, manufactured by FUJIFILM Holdings Corporation).
In order to quantitatively compare differences between images caused by ^123I and ^18F nuclides, a correction was made by calculating accumulation of radioactivity within the range of a region of interest (ROI) by means of integral calculation based on half-life, added radioactivity and IP contact time.
610. FIG. 18(b), FIG. 19(b), FIG. 20(b), FIG. 21(b), FIG. 22(a), FIG. 23(a), FIG. 24(a), FIG. 25(a), FIG. 26(a), FIG. 27(a), FIG. 28(a), FIG. 29(a), FIG. 30(a), and FIG. 31(a) each show an autoradiogram of [^123I] IMTO. […] 100, [^18F] 200, [^123I] 400, [^18F] 500, and [^123I] 601 to [^123I] […] The ROI having the same area as each other was established in a normal site and in a site in which aldosterone-producing adenoma had developed. Then, the PSL value (B1) indicating accumulation of radioactivity in the sites of normal adrenal cortexes 72a and 72b was compared with the PSL value (B2) indicating accumulation of radioactivity in the sites of aldosterone-producing adenomas 71a and 71b. In Table 7, the B1, B2 and B2/B1 values of [^18F] 100 indicate the mean values for the number of tests (n), respectively.

[2] = In vivo kinetics experiment (radioactivity distribution); parameters: species or system Wistar male rat; details: rat i.v., mean ± SD
Description: Each of Compounds [^18F] 100, [^18F] 200, [^123I] 400, [^18F] 500, and [^123I] 601 to 610 obtained by the methods described in Examples 2, 4, 7, 9, 11, 13, 15, 17, 19, 21, 23, 25, 27, and 29, or [^123I] IMTO, was diluted with a physiological saline containing 1 w/v % ascorbic acid to prepare a solution to be administered. The above described compound (approximately 1 to 3.7 MBq) was injected into the caudal vein of a Wistar male rat (9 weeks old) under anesthesia with a mixed gas of isoflurane/air, and ten minutes after the injection, the rat was sacrificed by exsanguination. From the thus sacrificed rat, blood and organs (heart, lung, stomach, liver, spleen, small intestine, large intestine, kidney, bladder (including urine), muscle (lower limbs), brain, adrenal gland, testis, fat, femur, or thyroid gland) were excised, and the weights thereof were then measured. Thereafter, radioactivity was measured in the blood, the individual excised organs, and the remaining whole body. Further, 30 and 60 minutes after the administration, the same operations as those described above were carried out. […] The symbol “n” in Tables 9 to 23 indicates the number of rats used. In addition, Tables 9 to 23 also show the ratio of radioactivity accumulation in adrenal grand (% ID/g) to radioactivity accumulation in each of blood, liver, kidney, small intestine, muscle and fat (% ID/g).

## COC(=O)c1cncn1[C@H](C)c1ccc(I)cc1 [[^123I] IMTO, (R)-[^123I]iodometomidate, reference compound]
[1]; FIGS. 18 to 31
  accumulation of radioactivity in adrenal gland section (autoradiogram): accumulation of radioactivity was observed in the entire adrenal gland section
[1]; section of FIG. 17(a)
  B2/B1 accumulation ratio: 0.84
[1]; section of FIG. 17(a), site 71a
  B2 (PSL value, aldosterone-producing adenoma): 7863
[1]; section of FIG. 17(a), site 72a
  B1 (PSL value, normal adrenal cortex): 9415
[1]; section of FIG. 17(b)
  B2/B1 accumulation ratio: 0.79
[1]; section of FIG. 17(b), site 71b
  B2 (PSL value, aldosterone-producing adenoma): 6649
[1]; section of FIG. 17(b), site 72b
  B1 (PSL value, normal adrenal cortex): 8453
[2]; 10 min after administration
  Adrenal gland/blood ratio of radioactivity accumulation: 15.93 ± 4.94
  Adrenal gland/kidney ratio of radioactivity accumulation: 31.76 ± 10.16
  Adrenal gland/liver ratio of radioactivity accumulation: 6.72 ± 2.00
  Adrenal gland/muscle ratio of radioactivity accumulation: 126.18 ± 54.27
  Adrenal gland/small intestine ratio of radioactivity accumulation: 35.65 ± 9.43
  Radioactivity distribution Adrenal gland: 22.14 ± 6.98 % ID/g
  Radioactivity distribution Bladder (including urine): 0.25 ± 0.27 % ID/g
  Radioactivity distribution Blood: 1.40 ± 0.13 % ID/g
  Radioactivity distribution Heart: 0.48 ± 0.07 % ID/g
  Radioactivity distribution Kidney: 0.70 ± 0.01 % ID/g
  Radioactivity distribution Large intestine: 0.10 ± 0.02 % ID/g
  Radioactivity distribution Liver: 3.29 ± 0.08 % ID/g
  Radioactivity distribution Lung: 0.72 ± 0.05 % ID/g
  Radioactivity distribution Muscle (lower limbs): 0.18 ± 0.05 % ID/g
  Radioactivity distribution Remaining whole body: 0.29 ± 0.00 % ID/g
  Radioactivity distribution Small intestine: 0.62 ± 0.03 % ID/g
  Radioactivity distribution Spleen: 0.30 ± 0.02 % ID/g
  Radioactivity distribution Stomach: 0.52 ± 0.18 % ID/g
  Radioactivity distribution Testis: 0.52 ± 0.08 % ID/g
  Radioactivity distribution Thyroid gland: 1.30 ± 1.05 % ID/g
  Radioactivity distribution Whole brain: 0.30 ± 0.02 % ID/g
[2]; 30 min after administration
  Adrenal gland/blood ratio of radioactivity accumulation: 6.84 ± 2.49
  Adrenal gland/kidney ratio of radioactivity accumulation: 16.66 ± 8.95
  Adrenal gland/liver ratio of radioactivity accumulation: 9.74 ± 4.16
  Adrenal gland/muscle ratio of radioactivity accumulation: 97.10 ± 32.37
  Adrenal gland/small intestine ratio of radioactivity accumulation: 25.49 ± 8.31
  Radioactivity distribution Adrenal gland: 17.66 ± 7.43 % ID/g
  Radioactivity distribution Bladder (including urine): 0.39 ± 0.08 % ID/g
  Radioactivity distribution Blood: 2.55 ± 0.16 % ID/g
  Radioactivity distribution Heart: 0.74 ± 0.03 % ID/g
  Radioactivity distribution Kidney: 1.10 ± 0.12 % ID/g
  Radioactivity distribution Large intestine: 0.12 ± 0.01 % ID/g
  Radioactivity distribution Liver: 1.82 ± 0.04 % ID/g
  Radioactivity distribution Lung: 0.90 ± 0.09 % ID/g
  Radioactivity distribution Muscle (lower limbs): 0.18 ± 0.02 % ID/g
  Radioactivity distribution Remaining whole body: 0.31 ± 0.03 % ID/g
  Radioactivity distribution Small intestine: 0.68 ± 0.06 % ID/g
  Radioactivity distribution Spleen: 0.43 ± 0.04 % ID/g
  Radioactivity distribution Stomach: 0.46 ± 0.11 % ID/g
  Radioactivity distribution Testis: 0.32 ± 0.04 % ID/g
  Radioactivity distribution Thyroid gland: 0.81 ± 0.16 % ID/g
  Radioactivity distribution Whole brain: 0.18 ± 0.02 % ID/g
[2]; 60 min after administration
  Adrenal gland/blood ratio of radioactivity accumulation: 6.73 ± 2.57
  Adrenal gland/kidney ratio of radioactivity accumulation: 18.20 ± 8.58
  Adrenal gland/liver ratio of radioactivity accumulation: 14.20 ± 5.28
  Adrenal gland/muscle ratio of radioactivity accumulation: 120.14 ± 30.92
  Adrenal gland/small intestine ratio of radioactivity accumulation: 24.59 ± 8.26
  Radioactivity distribution Adrenal gland: 19.70 ± 8.14 % ID/g
  Radioactivity distribution Bladder (including urine): 0.68 ± 0.30 % ID/g
  Radioactivity distribution Blood: 2.91 ± 0.09 % ID/g
  Radioactivity distribution Heart: 0.77 ± 0.03 % ID/g
  Radioactivity distribution Kidney: 1.10 ± 0.10 % ID/g
  Radioactivity distribution Large intestine: 0.14 ± 0.02 % ID/g
  Radioactivity distribution Liver: 1.37 ± 0.06 % ID/g
  Radioactivity distribution Lung: 1.01 ± 0.03 % ID/g
  Radioactivity distribution Muscle (lower limbs): 0.16 ± 0.02 % ID/g
  Radioactivity distribution Remaining whole body: 0.34 ± 0.01 % ID/g
  Radioactivity distribution Small intestine: 0.79 ± 0.11 % ID/g
  Radioactivity distribution Spleen: 0.39 ± 0.03 % ID/g
  Radioactivity distribution Stomach: 0.41 ± 0.05 % ID/g
  Radioactivity distribution Testis: 0.33 ± 0.02 % ID/g
  Radioactivity distribution Thyroid gland: 1.29 ± 0.25 % ID/g
  Radioactivity distribution Whole brain: 0.11 ± 0.00 % ID/g

— patent US10358434B2, “2-(3-pyridinyl)-1H-benzimidazole derivative compound and medicament containing same” (NIHON MEDI-PHYSICS CO., LTD., priority 2014, dated 2019)
